According to patent US9056874B2, “Complement pathway modulators and uses thereof” (NOVARTIS AG, priority 2012, dated 2015):

Target: factor B (Homo sapiens, UniProt P00751)
Assay: factor B inhibition assay of Biological Example 1
Format: biochemical
Parameters: CVF-Bb complex prepared from purified cobra venom factor (1 μM), recombinant human complement factor B; made in house; host or cells: drosophila cells (factor B); E. coli (factor D used to form the complex)
Conditions: IC50 (nM), assay of Biological Example 1 (Table 1)

factor B, sequence (P00751 260-764 limits assumed): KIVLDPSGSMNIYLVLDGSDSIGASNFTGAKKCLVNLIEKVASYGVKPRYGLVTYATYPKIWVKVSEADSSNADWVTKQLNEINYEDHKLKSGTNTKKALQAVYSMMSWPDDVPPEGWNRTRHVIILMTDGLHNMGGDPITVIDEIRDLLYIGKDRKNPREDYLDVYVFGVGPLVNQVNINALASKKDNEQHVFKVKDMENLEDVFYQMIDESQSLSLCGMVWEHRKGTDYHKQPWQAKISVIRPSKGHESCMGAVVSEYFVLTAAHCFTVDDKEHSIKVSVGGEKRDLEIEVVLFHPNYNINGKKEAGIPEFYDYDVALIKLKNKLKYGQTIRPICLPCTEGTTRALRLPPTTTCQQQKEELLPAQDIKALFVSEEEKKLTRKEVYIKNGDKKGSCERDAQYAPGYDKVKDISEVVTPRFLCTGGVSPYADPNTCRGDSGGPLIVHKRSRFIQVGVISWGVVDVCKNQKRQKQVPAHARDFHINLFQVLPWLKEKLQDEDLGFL
factor B, sequence (Q91132 23-649 partner limits assumed): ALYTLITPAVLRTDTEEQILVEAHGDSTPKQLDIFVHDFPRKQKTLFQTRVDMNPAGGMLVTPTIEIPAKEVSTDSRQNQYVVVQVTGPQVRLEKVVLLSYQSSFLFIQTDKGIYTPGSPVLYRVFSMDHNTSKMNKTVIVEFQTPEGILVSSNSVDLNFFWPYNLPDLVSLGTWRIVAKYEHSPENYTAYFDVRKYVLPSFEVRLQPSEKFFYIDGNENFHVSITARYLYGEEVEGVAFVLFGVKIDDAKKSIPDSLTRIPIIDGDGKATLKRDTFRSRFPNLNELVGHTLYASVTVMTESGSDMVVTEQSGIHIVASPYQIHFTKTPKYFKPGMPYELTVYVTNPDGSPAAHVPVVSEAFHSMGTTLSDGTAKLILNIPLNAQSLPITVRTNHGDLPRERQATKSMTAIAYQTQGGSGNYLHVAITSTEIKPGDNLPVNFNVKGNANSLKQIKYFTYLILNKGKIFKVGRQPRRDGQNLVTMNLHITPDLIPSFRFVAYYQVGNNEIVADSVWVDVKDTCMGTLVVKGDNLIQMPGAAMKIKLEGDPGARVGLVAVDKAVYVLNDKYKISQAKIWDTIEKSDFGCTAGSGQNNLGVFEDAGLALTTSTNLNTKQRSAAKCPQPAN
factor B, sequence (Q91132 733-984 partner limits assumed): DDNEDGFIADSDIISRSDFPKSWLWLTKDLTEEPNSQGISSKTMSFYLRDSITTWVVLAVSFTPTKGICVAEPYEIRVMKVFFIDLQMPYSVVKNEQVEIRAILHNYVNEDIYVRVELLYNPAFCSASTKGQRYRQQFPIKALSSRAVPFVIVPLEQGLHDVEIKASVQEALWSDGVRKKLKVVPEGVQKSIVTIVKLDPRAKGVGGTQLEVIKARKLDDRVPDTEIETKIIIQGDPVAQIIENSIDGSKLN
factor B, sequence (Q91132 1264-1642 partner limits assumed): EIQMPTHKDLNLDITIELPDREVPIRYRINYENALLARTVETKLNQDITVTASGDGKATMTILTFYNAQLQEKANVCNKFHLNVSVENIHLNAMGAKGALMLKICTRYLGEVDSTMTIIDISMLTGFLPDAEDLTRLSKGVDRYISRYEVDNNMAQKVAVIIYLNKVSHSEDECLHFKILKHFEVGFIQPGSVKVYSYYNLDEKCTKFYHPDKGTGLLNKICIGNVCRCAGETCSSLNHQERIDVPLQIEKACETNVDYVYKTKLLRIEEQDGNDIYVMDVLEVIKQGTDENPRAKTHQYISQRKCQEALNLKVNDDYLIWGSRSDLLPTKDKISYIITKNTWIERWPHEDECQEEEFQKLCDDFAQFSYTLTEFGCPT

Going from `Cc1cc(C)c2c(c1Cc1nc3cc(C#N)ccc3[nH]1)CCN2` [Example 123, 2-((5,7-Dimethylindolin-4-yl)methyl)-1H-benzo[d]imidazole-5-carbonitrile] to `Cc1cc(C)c2[nH]ccc2c1Cc1nc2cc(C#N)ccc2[nH]1` [Example 58-C, 2-((5,7-Dimethyl-1H-indol-4-yl)methyl)-1H-benzo[d]imidazole-5-carbonitrile], the IC50 falls from 920 nM to 200 nM (4.6-fold).

Compared with `Cc1cc(C)c2[nH]ccc2c1C(C)(N)c1nc2cc(C#N)ccc2[nH]1` (racemic) [101-E b) (−), (−)-2-(1-amino-1-(5,7-dimethyl-1H-indol-4-yl)ethyl)benzo[d]imidazole-5-carbonitrile], `Cc1cc(C)c2[nH]ccc2c1C(C)(O)c1nc2cc(C#N)ccc2[nH]1` (single isomer, unassigned; (-)) [76-B b) (−), (−)-2-(1-(5,7-Dimethyl-1H-indol-4-yl)-1-hydroxyethyl)-1H-benzo[d]imidazole-5-carbonitrile] is 3.8-fold higher in IC50: 50 nM for the first, 190 nM for the second. The first is the more potent here.

`CCc1cc(C)c2[nH]ccc2c1C(N)c1nc2cc(C#N)ccc2[nH]1` (single isomer, unassigned; (-)) [96-C b) (−), (−)-2-(amino(5-ethyl-7-methyl-1H-indol-4-yl)methyl)-1H-benzo[d]imidazole-5-carbonitrile] and `Cc1cc(C(C)C)c(C(N)c2nc3cc(C#N)ccc3[nH]2)c2cc[nH]c12` (single isomer, unassigned) [97 b) (tr = 19.4 min), (−) or (+)-2-(amino(5-isopropyl-7-methyl-1H-indol-4-yl)methyl)-1H-benzo[d]imidazole-5-carbonitrile] are the same in IC50: 70 nM for the first, 70 nM for the second.

`COc1cc(C)c2[nH]ccc2c1C(O)(c1nc2cc(C#N)ccc2[nH]1)C(F)(F)F` (single isomer, unassigned; (+)) [33-B b) (+), (+)-2-(2,2,2-trifluoro-1-hydroxy-1-(5-methoxy-7-methyl-1H-indol-4-yl)ethyl)-1H-benzo[d]imidazole-5-carbonitrile] and `CCOc1cc(C)c2[nH]ccc2c1C(O)(c1nc2cc(C#N)ccc2[nH]1)C(F)(F)F` (single isomer, unassigned) [33-C b) (tr = 3 min), 2-(1-(5-ethoxy-7-methyl-1H-indol-4-yl)-2,2,2-trifluoro-1-hydroxyethyl)-1H-benzo[d]imidazole-5-carbonitrile] are within 1.5-fold of each other in IC50: 430 nM for the first, 490 nM for the second.

Going from `Cc1cc(C(C)C)c(C(O)c2nc3cc(C#N)ccc3[nH]2)c2cc[nH]c12` (single isomer, unassigned; (+)) [67-D b) (+), (+)-2-(hydroxy(5-isopropyl-7-methyl-1H-indol-4-yl)methyl)-1H-benzo[d]imidazole-5-carbonitrile] to `Cc1cc(OC(C)C)c(C(O)c2nc3cc(C#N)ccc3[nH]2)c2cc[nH]c12` (single isomer, unassigned; (-)) [24-D b) (−), (−)-2-(hydroxy(5-isopropoxy-7-methyl-1H-indol-4-yl)methyl)-1H-benzo[d]imidazole-5-carbonitrile], the IC50 falls from 3220 nM to 490 nM (6.6-fold).

Compared with `Cc1cc(OC(F)F)c(C(NCCN)c2nc3cc(C#N)ccc3[nH]2)c2cc[nH]c12` (racemic) [3-B a) 2nd compound, (±)-2-(((2-aminoethyl)amino)(5-(difluoromethoxy)-7-methyl-1H-indol-4-yl)methyl)-1H-benzo[d]imidazole-5-carbonitrile], `Cc1cc(OC(F)F)c(C(C)(N)c2nc3cc(C#N)ccc3[nH]2)c2cc[nH]c12` (single isomer, unassigned; (-)) [5-E b) (−), (−)-2-(1-amino-1-(5-(difluoromethoxy)-7-methyl-1H-indol-4-yl)ethyl)-1H-benzo[d]imidazole-5-carbonitrile] is 68-fold lower in IC50: 2700 nM for the first, 40 nM for the second. The second is the more potent here.

First: CCc1cc(C)c2[nH]cc(C(O)C(F)(F)F)c2c1Cc1nc2cc(C#N)ccc2[nH]1 (racemic) [Example 92-B, (±)-2-((5-Ethyl-7-methyl-3-(2,2,2-trifluoro-1-hydroxyethyl)-1H-indol-4-yl)methyl)-1H-benzo[d]imidazole-5-carbonitrile]
Second: CCc1cc(C)c2[nH]cc(Cl)c2c1C(O)c1nc2cc(C#N)ccc2[nH]1 (racemic) [Example 87, (±)-2-((3-Chloro-5-ethyl-7-methyl-1H-indol-4-yl)(hydroxy)methyl)-1H-benzo[d]imidazole-5-carbonitrile]
The IC50 of the first is 26-fold higher: 9750 nM for the first, 380 nM for the second.

Going from `Cc1cc(C)c2[nH]ccc2c1Cc1nc2cc(C#N)c(Cl)cc2[nH]1` [Example 63-I] to `Cc1cc(Br)c2[nH]ccc2c1Cc1nc2cc(C#N)ccc2[nH]1` [Example 112-E, 2-((7-Bromo-5-methyl-1H-indol-4-yl)methyl)-1H-benzo[d]imidazole-5-carbonitrile], the IC50 falls from 72600 nM to 4150 nM (17-fold). The second is the more potent here.

Compared with `Cc1cc(C)c2[nH]ccc2c1C(C)(c1nc2cc(C#N)ccc2[nH]1)N(C)C` (racemic) [Example 104-B, (±)-2-(1-(5,7-dimethyl-1H-indol-4-yl)-1-(dimethylamino)ethyl)-1H-benzo[d]imidazole-5-carbonitrile], `CNC(C)(c1nc2cc(C#N)ccc2[nH]1)c1c(OC)cc(C)c2[nH]ccc12` (single isomer, unassigned; (+)) [42-D b) (+), (+)-2-(1-(5-methoxy-7-methyl-1H-indol-4-yl)-1-(methylamino)ethyl)-1H-benzo[d]imidazole-5-carbonitrile] is 2-fold lower in IC50: 260 nM for the first, 130 nM for the second.

Going from `COc1cc(C)c2[nH]ccc2c1C(O)c1cc2ccc(C#N)cc2[nH]1` (racemic) [Example 135-C, (±)-2-(hydroxy(5-methoxy-7-methyl-1H-indol-4-yl)methyl)-1H-indole-6-carbonitrile] to `Cc1cc(C)c2[nH]ccc2c1C(C)c1nc2cc(C#N)ccc2[nH]1` (racemic) [Example 75-D, (±)-2-(1-(5,7-Dimethyl-1H-indol-4-yl)ethyl)-1H-benzo[d]imidazole-5-carbonitrile], the IC50 rises from 20 nM to 470 nM (24-fold). The first is the more potent here.

Compared with `CCOc1cc(C)c2[nH]ccc2c1C(CNC)c1nc2cc(C#N)ccc2[nH]1` (racemic) [Example 45, (±)-2-(1-(5-ethoxy-7-methyl-1H-indol-4-yl)-2-(methylamino)ethyl)-1H-benzo[d]imidazole-5-carbonitrile], `Cc1cc(OC(F)F)c(C(C)(N)c2nc3cc(C#N)ccc3[nH]2)c2cc[nH]c12` (single isomer, unassigned; (+)) [5-E b) (+), (+)-2-(1-amino-1-(5-(difluoromethoxy)-7-methyl-1H-indol-4-yl)ethyl)-1H-benzo[d]imidazole-5-carbonitrile] is 2.5-fold lower in IC50: 1040 nM for the first, 420 nM for the second. The second is the more potent here.

`CNC(c1nc2cc(C#N)ccc2[nH]1)(c1c(C2CC2)cc(C)c2[nH]ccc12)C(F)(F)F` (single isomer, unassigned; (+)) [107-E b) (+), (+)-2-(1-(5-cyclopropyl-7-methyl-1H-indol-4-yl)-2,2,2-trifluoro-1-(methylamino)ethyl)-1H-benzo[d]imidazole-5-carbonitrile] and `Cc1cc(C2CC2)c(C(O)(c2nc3cc(C#N)ccc3[nH]2)C(F)(F)F)c2cc[nH]c12` (single isomer, unassigned; (+)) [80-E b) (+), (+)-2-(1-(5-cyclopropyl-7-methyl-1H-indol-4-yl)-2,2,2-trifluoro-1-hydroxyethyl)-1H-benzo[d]imidazole-5-carbonitrile] are within 1.5-fold of each other in IC50: 240 nM for the first, 180 nM for the second.

Compared with `Cc1cc(S(C)(=O)=O)c(C(C)(N)c2nc3cc(C#N)ccc3[nH]2)c2cc[nH]c12` (single isomer, unassigned; (+)) [13-E b) (+), (+)-2-(1-Amino-1-(7-methyl-5-(methylsulfonyl)-1H-indol-4-yl)ethyl)-1H-benzo[d]imidazole-5-carbonitrile], `[2H]C([2H])([2H])C(OC)(c1nc2cc(C#N)ccc2[nH]1)c1c(OC)cc(C)c2[nH]ccc12` (single isomer, unassigned; (-)) [27-E b) (−), (−)-2-((^2H3)methyl(methoxy)(5-methoxy-7-methyl-1H-indol-4-yl)methyl)-1H-benzo[d]imidazole-5-carbonitrile] is 62-fold lower in IC50: 250 nM for the first, 4 nM for the second.

Going from `Cc1cc(C)c2[nH]cc(-c3ccn[nH]3)c2c1C(O)c1nc2cc(C#N)ccc2[nH]1` (racemic) [Example 121-D, (±)-2-((5,7-Dimethyl-3-(1H-pyrazol-5-yl)-1H-indol-4-yl)(hydroxy)methyl)-1H-benzo[d]imidazole-5-carbonitrile] to `COc1cc(C)c2[nH]cc(Cl)c2c1C(O)c1nc2cc(C#N)ccc2[nH]1` (single isomer, unassigned; (+)) [28-C b) (+), (+)-2-((3-chloro-5-methoxy-7-methyl-1H-indol-4-yl)(hydroxy)methyl)-1H-benzo[d]imidazole-5-carbonitrile], the IC50 rises from 480 nM to 53900 nM (110-fold). The first is the more potent here.

First: Cc1cc(C)c2[nH]ccc2c1C(O)c1nc2c(C)c(C#N)ccc2[nH]1 (single isomer, unassigned; (-)) [67-G b) (−), (−)-2-((5,7-dimethyl-1H-indol-4-yl)(hydroxy)methyl)-4-methyl-1H-benzo[d]imidazole-5-carbonitrile]
Second: COc1cc(C)c2[nH]ccc2c1C(OC)(c1nc2cc(C#N)ccc2[nH]1)C(F)(F)F (single isomer, unassigned; (-)) [34-B b) (−), (−)-2-(2,2,2-trifluoro-1-methoxy-1-(5-methoxy-7-methyl-1H-indol-4-yl)ethyl)-1H-benzo[d]imidazole-5-carbonitrile]
The IC50 of the first is 57-fold higher: 570 nM for the first, 10 nM for the second.

Going from `CCc1cc(C)c2[nH]cc3c2c1C(O)(c1nc2cc(C#N)ccc2[nH]1)CC3` (single isomer, unassigned) [94 b) (tr = 6.3 min), (−) or (+)-2-(6-ethyl-5-hydroxy-8-methyl-1,3,4,5-tetrahydrobenzo[cd]indol-5-yl)-1H-benzo[d]imidazole-5-carbonitrile] to `Cc1cc(C)c2[nH]ccc2c1C(O)c1nc2c(C)c(C#N)ccc2[nH]1` (single isomer, unassigned; (+)) [67-G b) (+), (+)-2-((5,7-dimethyl-1H-indol-4-yl)(hydroxy)methyl)-4-methyl-1H-benzo[d]imidazole-5-carbonitrile], the IC50 rises from 1590 nM to 2980 nM (1.9-fold). The first is the more potent here.
